Laboratory results from patent US8158389B2, “Products and methods for in vivo secretion of monatin” (priority 2005, dated 2012).

Key:
[1] = tested on: E. coli MG1655 ΔAcrAB 6-16::aspCproAproNde; assay: AcrAB k.o. validation: growth (OD 600 nm) with novobiocin / sodium decanoate, knockout strain; assay type: cell-based, Escherichia coli; settings: sodium decanoate 2.5 mM; novobiocin 0 ppm
Description: Single chloramphenicol-resistant colonies were purified by restreaking on appropriate selective media and single colonies were tested by PCR as previously described for the BW25113 knockout strains, to verify the presence of the emrB and acrAB knockouts. The effects of the emrB and acrAB knockouts on the EmrAB and AcrAB transporter systems respectively were determined by assessing the phenotype of the transport mutants using appropriate antibiotics and comparison to wild type control microorganisms as shown in Table 3.1 and Table 3.2 below.

[2] = tested on: E. coli MG1655; assay: Monatin excretion with 2.5 mM sodium decanoate, E. coli MG1655 strains with pUC19, marA or baeR (30, 72 h); assay type: cell-based, Escherichia coli
From the text: The strain used for the experiment was E. coli MG1655: : aspC/proA/pProNde together with the marA gene from E. coli cloned into the pUC19 vector (GenBank/EMBL accession number L09137). The control strain was E. coli MG1655: : aspC/proA/pProNde along with the pUC19 vector. The marA gene was amplified from E. coli W3110 with PCR technology (known to one skilled in the art) using the primers E. coli MarASalIF-5′[…]3′ (SEQ ID NO. 24) and E. coli MarABamHIR-5′[…]3′ (SEQ ID NO. 25). For inoculum, the E. coli strains were grown overnight at 37° C. and 250 rpm in Luria-Bertani (“LB”) medium with 100 μg/mL ampicillin and 50 μg/mL kanamycin.
For the experimental treatments, Trp-1+glucose medium, a minimal medium that has been used for increased production of tryptophan in E. coli cells (Zeman, et al. Folia Microbiol. 35:200-204, (1990)), was prepared as follows. To 800 mL nanopure water the following reagents were added: 2 g (NH4)2SO4 and 13.6 g KH2PO4. The pH was adjusted to 7.0, the volume was increased to 948 mL, and the medium was autoclaved. Following sterilization, 0.2 g MgSO4.7H2O, 0.01 g CaCl2.2H2O, and 0.5 mg FeSO4.7H2O were added to the medium in a 1.8 mL volume followed by addition of 0.2 mL of Neidhardt's micronutrient solution. Neidhardt F. C., et al., “Culture medium for Enterobacteria,” J. Bacteriol. 119:736-746, (1974). Neidhardt's medium includes (per liter): 0.18 g (NH4)6(MO7)24.4H2O, 1.24 g H3BO3, 0.36 g CoCl2.6H2O, 0.12 g CuSO4 (anhydrous), 0.8 g MnCl2.4H2O, and 0.14 g ZnSO4.7H2O. A 50% glucose solution was prepared separately and sterile-filtered. Forty mL of glucose solution and 10 mL of 1 M 3-Morpholinopropanesulfonic acid (“MOPS”) buffer were added to the base medium (950 mL) for a 1 L final volume.
Conditions for the treatments included 250 rpm agitation throughout and 37° C. up to induction, then, 30° C. following induction. At an OD600 nm between 0.35-0.50, induction of the plasmid genes was initiated. At induction, 1.0 mM IPTG, 0.5% L-arabinose, 0.5 mM pyridoxine hydrochloride, and 0.2 mLs of Balch's vitamins were added. Additions of 10 g/L L-tryptophan, 10 g/L sodium pyruvate, 0.04 mM pyridoxal-5′-phosphate (“PLP”) and 0.2% Tween® 20 (polyoxyethylene 20-sorbitan monolaurate) were made 3.0 hours following induction. At 24 hours after inoculation, 10 g/L of sodium pyruvate was added to each flask again. Some treatments included 2.5 mM sodium decanoate addition at 3.0 hours following induction.
The strains used for the experiment were E. coli. MG1655 : : aspC/proA/pProNde in combination with either baeR or no insert in the pUC19 vector. The baeR gene was amplified from E. coli W3110 by using primers, E. coli baeRSalIF 5′[…]3′ (SEQ ID NO. 26) and E. coli baeRBamHIR 5′[…]3′ (SEQ ID NO. 27), which introduced SalI and BamHI sites at the end of the amplified fragment. The PCR fragment was cloned between the SalI and BamHI sites of the vector pUC19 (GenBank/EMBL accession number L09137). For inoculum, the E. coli strains were grown overnight at 37° C. and 250 rpm in Luria-Bertani (“LB”) medium with 100 μg/mL ampicillin and 50 μg/mL kanamycin.
For the experimental treatments, Trp-1+glucose medium, a minimal medium that has been used for increased production of tryptophan in E. coli cells (Zeman et al. Folia Microbiol. 35:200-204, (1990)), was prepared as follows. To 800 mL nanopure water the following reagents were added: 2 g (NE4)2SO4 and 13.6 g KH2PO4. The pH was adjusted to 7.0, the volume was increased to 948 mL, and the medium was autoclaved. Following sterilization, 0.2 g MgSO4.7H2O, 0.01 g CaCl2.2H2O, and 0.5 mg FeSO4.7H2O were a to the medium in a 1.8 mL volume followed by addition of 0.2 mL of Neidhardt's micronutrient solution. Neidhardt F. C., et al., “Culture medium for Enterobacteria,” J. Bacteriol. 119:736-746 (1974). Neidhardt's medium includes (per liter): 0.18 g (NH4)6(MO7)24.4H2l O, 1.24 g H3BO3, 0.36 g CoCl2.6H2O, 0.12 g CuSO4 (anhydrous), 0.8 g MnCl2.4H2O, and 0.14 g ZnSO4.7H2O. […]

[3] = E. coli MG1655 AspC ProA pProNde del BaeR pUC19, n = 2
[4] = E. coli MG1655 AspC ProA pProNde del MarA pUC19, n = 2
[5] = E. coli MG1655 aspC proA pProNde del pUC19 (control), n = 2

SMILES: CCCCCCCCCC(=O)[O-].[Na+] [sodium decanoate]
- OD 600 nm at 19 hours [1]: 0.885
- Mean monatin per dry cell weight, 30 hours [2, 3]: 16.2 mg/g
- Mean monatin per dry cell weight, 72 hours [2, 3]: 66.8 mg/g
- Mean monatin per dry cell weight, 30 hours [2, 4]: 8.5 mg/g
- Mean monatin per dry cell weight, 72 hours [2, 4]: 51.9 mg/g
- Mean monatin per dry cell weight, 30 hours [2, 5]: 2.4 mg/g
- Mean monatin per dry cell weight, 72 hours [2, 5]: 2.7 mg/g
